This is an account of results in US10184115B2, “Mutated cellobiose dehydrogenase with increased substrate specificity” (DIRECTSENS GMBH, priority 2012, dated 2019).

Molecules are shown by their SMILES.

This test deals with T1, Myriococcum thermophilum cellobiose dehydrogenase (CDH), recombinant wild type, SEQ ID NO: 1 (Thermothelomyces myriococcoides, UniProt A9XK88).
T1 sequence (A9XK88 22-828): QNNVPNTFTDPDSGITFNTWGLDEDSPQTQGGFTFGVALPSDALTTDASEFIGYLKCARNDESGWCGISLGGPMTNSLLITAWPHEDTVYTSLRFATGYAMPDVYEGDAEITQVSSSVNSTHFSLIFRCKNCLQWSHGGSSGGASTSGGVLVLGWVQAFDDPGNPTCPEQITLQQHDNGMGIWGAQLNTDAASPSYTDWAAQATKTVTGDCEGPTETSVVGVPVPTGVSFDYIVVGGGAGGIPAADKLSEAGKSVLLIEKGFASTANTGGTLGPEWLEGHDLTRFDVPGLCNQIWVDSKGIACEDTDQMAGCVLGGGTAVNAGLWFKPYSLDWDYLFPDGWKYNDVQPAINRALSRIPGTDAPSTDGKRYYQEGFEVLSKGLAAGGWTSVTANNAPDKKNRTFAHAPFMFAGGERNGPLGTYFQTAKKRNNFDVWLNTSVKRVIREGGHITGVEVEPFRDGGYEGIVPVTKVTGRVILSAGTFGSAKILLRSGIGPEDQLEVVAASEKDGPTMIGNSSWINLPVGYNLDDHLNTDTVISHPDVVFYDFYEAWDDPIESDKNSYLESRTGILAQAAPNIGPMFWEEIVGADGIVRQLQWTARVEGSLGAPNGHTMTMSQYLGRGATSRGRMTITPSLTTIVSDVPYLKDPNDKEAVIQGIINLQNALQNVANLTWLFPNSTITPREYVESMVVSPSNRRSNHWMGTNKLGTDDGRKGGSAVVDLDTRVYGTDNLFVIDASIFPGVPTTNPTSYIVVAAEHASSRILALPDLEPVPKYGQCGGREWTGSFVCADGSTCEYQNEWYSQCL
In words: Steady-state kinetics, DCIP assay: M. thermophilum CDH wt. Type of test: biochemical. The settings on record: apparent, pH 4.5, 30° C. The procedure: Enzyme activity was assayed at 30° C. using either the DCIP (Karapetyan et al., 2005 Journal of Biotechnology 121: 34-48) or cytochrome c (Canevascini et al., 1991, European Journal of Biochemistry 198: 43-52) as electron acceptor. […] Stock solutions of carbohydrates used for kinetic measurements were prepared in the respective buffer and allowed to stand overnight for mutarotation, while stock solutions of electron acceptors were prepared in water and immediately used. The reaction stoichiometry is 1 for the two-electron acceptor DCIP (1 mole of DCIP reduced per mole of carbohydrate oxidized), but 2 for the one-electron acceptor cytochrome c. Kinetic constants were calculated by fitting the observed data to the Henri-Michaelis-Menten equation or to the adapted model for substrate inhibition using nonlinear least-squares regression and the program SigmaPlot (Systat Software, San Jose, Calif., USA). […]
Recombinant wild-type CDH as well as variants were produced in 1 L baffled flasks. […] Increase in activity was monitored using the DCIP and the cytochrome c enzyme assays. […]
The sample was loaded on a 20 mL PHE Sepharose FF column (HR26/20) equilibrated with 50 mM Na-acetate buffer pH 5.5 containing 20% ammonium sulfate. […] Fractions were tested for CDH activity and pooled according to the highest Reinheitszahl (RZ, calculated from the absorbance ratio 420 nm/280 nm). […]

For orientation: kcat means the number of substrate molecules converted per active site and unit of time at saturation. Broadly, the kcat/KM is the second-order rate constant that governs catalysis at low substrate concentration. For `OC[C@H]1OC(O)[C@H](O)[C@@H](O)[C@@H]1O` (some centres unmarked) [Glucose, glucose], the kcat was 4.8 s⁻¹ and the catalytic efficiency (kcat/KM) was 12 M⁻¹ s⁻¹.
